The values that follow come from patent US20210345603A1, “COMPOSITION INTENDED FOR INCREASING THE VELOCITY OF SPERMS COMPRISING SEROTONIN AS ACTIVE COMPOUND” (YILDIZ TEKNÍK ÜNIÌVERSÍTESÌ, priority 2018, published 2021).

Each structure is given as a SMILES string.

In one experiment the test system is sperm cells. As to the kind of experiment: Sperm motility test in Makler counting chamber after incubation in sperm wash medium. In kind it is cell-based, human. More on the design: unit not given here. Here is the method: The first step is to collect the sperm cells and the semen of the infertile men within the range of 28-45 is used. Specimens are obtained after a sexual abstinence for 3-4 days. All semen specimens are collected in sterile containers and left to liquefy at 37° C. for 30 minutes. 10 μl of sample is taken into Makler® counting chamber and the concentrations, motilities, viabilities, morphologies of the sperms and the leukocyte existence are evaluated. According to the motility results, the semen specimen is prepared by being washed with HTF based sperm wash solution containing Hepes buffer by using concentration and gradient methods. Washed and prepared sperms are collected in the sperm wash medium in which certain amounts of (25, 50, 100 and 200 μM) 5-HT was added, and incubated at 25′C in certain periods of time (30, 60, 90 and 120 minutes).
Sperm motility tests are performed with the sperms kept in a serotonin medium, by the measurements in the Makler® counting chamber with 30, 60, 90 and 120 min. intervals. Samples with a sperm concentration of 2×10^6 and 50×10^5 per ml max. are included in the analyses. As to the interactions of serotonin and the excipients, washed sperm cells are taken into the sperm wash mediums containing 5-HT and vitamin D, serotonin, selenium, zinc mineral, vitamin C, vitamin E, vitamin B9, vitamin B12 in certain amounts respectively, and are incubated for certain time intervals in an incubator. The dosage of the compounds is determined by examining the effect of the same on sperm motility, both individually and in combination.

Another experiment concerns fruit flies. Conditions: fruit flies incapable of mating, after being fed with serotonin; cited from earlier work.

Regarding `NCCc1c[nH]c2ccc(O)cc12` [serotonin], the “Change in Average Motility” value in the experiment on sperm cells (25 μM serotonin, 30 min incubation at 25° C.) was found to be 82.76; with sperm cells (25 μM serotonin, 60 min incubation at 25° C.) it was 86.28; in the experiment with sperm cells (25 μM serotonin, 90 min incubation at 25° C.) it was 81.48; in the experiment with sperm cells (25 μM serotonin, 120 min incubation at 25° C.), 81.41; in the experiment with sperm cells (50 μM serotonin, 30 min incubation at 25° C.) it was 80.56; in the experiment on sperm cells (50 μM serotonin, 60 min incubation at 25° C.) it was 81.66. In addition, the “Change in Average Motility” value in the experiment with sperm cells (50 μM serotonin, 90 min incubation at 25° C.) was found to be 86.08; in the experiment with sperm cells (50 μM serotonin, 120 min incubation at 25° C.), 80.45; in the experiment with sperm cells (100 μM serotonin, 30 min incubation at 25° C.), 83.53; in the experiment on sperm cells (100 μM serotonin, 60 min incubation at 25° C.) it was 80.16; in the experiment with sperm cells (100 μM serotonin, 90 min incubation at 25° C.) it was 83.86; in the experiment with sperm cells (100 μM serotonin, 120 min incubation at 25° C.), 80.4. The “Change in Average Motility” value stood at 82.06 in the experiment on sperm cells (200 μM serotonin, 30 min incubation at 25° C.); 86.46 in the experiment with sperm cells (200 μM serotonin, 60 min incubation at 25° C.); 86.55 with sperm cells (200 μM serotonin, 90 min incubation at 25° C.); 82.55 in the experiment on sperm cells (200 μM serotonin, 120 min incubation at 25° C.). The Mating rate with fruit flies is given as 25%.
